# From patent US7632678B2, “Cancer stem cells and uses thereof” (The Hospital for Sick Children, priority 2005, dated 2009)
# Tested on: Tumor-initiating cells (NB12)
# Assay: IC50 determination, alamarBlue cell survival/growth
# Assay type: cell-based, human
# Details: 10 serial dilutions 5 μM to 9 nM
# Experimental: Tumor-initiating cells and normal cells were treated with 10 serial dilutions of compounds (5 μM to 9 nM). […] (FS90=normal cells; NB12=tumor-initiating cells).
# Tumor-initiating cells (NB12) and normal cells (FS90) were treated with 10 serial dilutions of compounds ranging from 5 μM to 9 nM. […] IC50 values for NB12 are given above each plot.
# IC50 values for NB12 and FS90 are given beside each plot.
# For each cell type, cells were passaged 5 days prior to screening.
substance,measurement,value
"Dequalinium analog, C-14 linker",IC50,1110 nM
